This passage reports EC50 results from patent publication US20230089073A1 (Carmot Therapeutics, Inc., priority 2021, published 2023).

The experiment has as its target T1, human GLP-1 receptor (Homo sapiens, UniProt P43220).
T1 construct: expressed in transfected cells
Put plainly: GLP-1R cAMP Assay. It is filed as cell-based. To be noted: cAMP accumulation in CHO cells stably overexpressing the human GLP-1 receptor; 30 min treatment; HitHunter cAMP kit; read-out: EC50. In outline:
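Luminescent enzyme-complementation detection of cAMP, read after cell lysis and overnight incubation, with dose-response curve fitting. Stimulation lasted 30 min, using 20-point triplicate dosing on CHO cells (10,000 per well) stably overexpressing human GLP-1R.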

T1 sequence (P43220 24-463): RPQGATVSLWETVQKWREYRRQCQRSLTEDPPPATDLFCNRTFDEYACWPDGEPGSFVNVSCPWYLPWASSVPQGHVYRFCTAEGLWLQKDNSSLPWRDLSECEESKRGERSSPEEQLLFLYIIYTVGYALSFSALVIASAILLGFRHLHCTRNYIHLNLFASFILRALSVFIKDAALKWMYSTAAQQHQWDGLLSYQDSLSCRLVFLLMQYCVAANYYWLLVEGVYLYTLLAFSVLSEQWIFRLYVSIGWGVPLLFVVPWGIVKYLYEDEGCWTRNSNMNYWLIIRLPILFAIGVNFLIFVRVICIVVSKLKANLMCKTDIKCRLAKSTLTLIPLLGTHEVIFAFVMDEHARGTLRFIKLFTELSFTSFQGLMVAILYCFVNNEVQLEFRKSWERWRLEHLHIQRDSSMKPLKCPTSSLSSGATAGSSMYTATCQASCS

A word on the EC50: it is the concentration at which the effect is half-maximal. Turning to `O=C(O)c1ccc2nc(CN3CCC(Cc4cnc(COc5cnc(C6CC6)cc5Cl)o4)CC3)n(C[C@@H]3CCO3)c2c1` [Example 154, (S)-2-((4-((2-(((4-Chloro-6-cyclopropylpyridin-3-yl)oxy)methyl)oxazol-5-yl)methyl)piperidin-1-yl)methyl)-1-(oxetan-2-ylmethyl)-1H-benzo[d]imidazole-6-carboxylic acid], the EC50 lay in the range of 50 to 500 nM.
For the molecule `O=C(O)c1ccc2nc(CN3CCC(Oc4ccnc(COc5ccc(C(F)F)cc5F)n4)CC3)n(C[C@@H]3CCO3)c2c1` [Compound 311], the EC50 was below 50 nM.
Take `CCn1cncc1Cn1c(CN2CCC(Cc3ccc(COc4ccc(Cl)cc4Cl)o3)CC2)nc2ccc(C(=O)O)cc21` [Compound 109, 2-{[4-({5-[(2,4-dichlorophenoxy)methyl]furan-2-yl}methyl)piperidin-1-yl]methyl}-1-[(1-ethyl-1H-imidazol-5-yl)methyl]-1H-1,3-benzodiazole-6-carboxylic acid]: the EC50 was below 50 nM.
Consider `O=C(O)c1ccc2nc(CN3CCC(Oc4ccnc(COc5ccc(F)cc5Cl)n4)CC3)n(C[C@H]3CCN3C(=O)c3ccon3)c2c1` [Example 483, (R)-2-((4-((2-((2-Chloro-4-fluorophenoxy)methyl)pyrimidin-4-yl)oxy)piperidin-1-yl)methyl)-1-((1-(isoxazole-3-carbonyl)azetidin-2-yl)methyl)-1H-benzo[d]imidazole-6-carboxylic acid], for which the concentration for a half-maximal effect (EC50) is below 50 nM.
Then `C[C@H]1CN(C(=O)c2cnc(COc3ccc(Cl)cc3Cl)o2)CCN1Cc1nc2ccc(C(=O)O)cc2n1C[C@@H]1CCO1` [Example 186, 2-(((S)-4-(2-((2,4-Dichlorophenoxy)methyl)oxazole-5-carbonyl)-2-methylpiperazin-1-yl)methyl)-1-(((S)-oxetan-2-yl)methyl)-1H-benzo[d]imidazole-6-carboxylic acid], with below 50 nM.
Consider `CCn1cncc1Cn1c(CN2CCC(Oc3ccccc3COc3ccc(Cl)cc3Cl)CC2)nc2ccc(C(=O)O)cc21` [Compound 272, 2-[(4-{2-[(2,4-dichlorophenoxy)methyl]phenoxy}piperidin-1-yl)methyl]-1-[(1-ethyl-1H-imidazol-5-yl)methyl]-1H-1,3-benzodiazole-6-carboxylic acid], for which the EC50 was in the range of 50 to 500 nM.
As for `O=C(O)c1ccc2nc(CN3CCC(Cc4ccc(F)c(COc5ccc(Cl)cc5Cl)c4)CC3)n(C[C@@H]3CCO3)c2c1` [Compound 162, 2-{[4-({3-[(2,4-dichlorophenoxy)methyl]-4-fluorophenyl}methyl)piperidin-1-yl]methyl}-1-{[(2S)-oxetan-2-yl]methyl}-1H-1,3-benzodiazole-6-carboxylic acid], the concentration giving a half-maximal response (EC50) is below 50 nM.
On to `O=C(O)c1ccc2nc(CN3CCc4[nH]c5c(OCc6ccc(Cl)cc6F)cccc5c4C3)n(C[C@@H]3CCO3)c2c1` [Example 90, (S)-2-((6-((4-Chloro-2-fluorobenzyl)oxy)-1,3,4,5-tetrahydro-2H-pyrido[4,3-b]indol-2-yl)methyl)-1-(oxetan-2-ylmethyl)-1H-benzo[d]imidazole-6-carboxylic acid], for which the EC50 was above 500 nM.
Then `O=C(O)c1ccc2nc(CN3CCN(C(=O)c4ccc(COc5ccc(C6CC6)cc5Cl)o4)CC3)n(C[C@@H]3CCO3)c2c1` [Compound 81, 2-[(4-{5-[(2-chloro-4-cyclopropylphenoxy)methyl]furan-2-carbonyl}piperazin-1-yl)methyl]-1-{[(2S)-oxetan-2-yl]methyl}-1H-1,3-benzodiazole-6-carboxylic acid], with 50 to 500 nM.
Then `O=C(O)c1ccc2nc(CN3CCN(C(=O)c4cnc(COc5ccc(Cl)cc5Cl)o4)CC3)n(C[C@@H]3CCO3)c2c1` [Example 102, (S)-2-((4-(2-((2,4-Dichlorophenoxy)methyl)oxazole-5-carbonyl)piperazin-1-yl)methyl)-1-(oxetan-2-ylmethyl)-1H-benzo[d]imidazole-6-carboxylic acid], with 50 to 500 nM.
